Results as given in patent US8188078B2 (Sanofi-Aventis, priority 2007, dated 2012).
Structures can show the parent of a compound that is named as a salt.

Legend:
[1] = molecular target: T1, c-MET (Homo sapiens, UniProt P08581); assay: Test A: HTRF Met test in 96-well format; type: biochemical
T1 construct: The recombinant DNA His-Tev-MET (956-1390) in pFastBac(Invitrogen); His (N, cleaved yes); Tev (TEV protease site) (N, cleaved yes); made in house; host or cells: SF21 insect cells (baculovirus, pFastBac)
Outline: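 Percent inhibition was calculated from the HTRF 665/620 ratio, using Eu-cryptate anti-phosphotyrosine PT66 plus streptavidin-XL added with EDTA and read after 2 h. The reaction ran 10 min at room temperature: 5 nM tag-cleaved MET (956–1390), 10 µM ATP, 1 µg/ml poly-GAT, and compound from 0.17 nM to 10 µM in 3% DMSO.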

[2] = molecular target: RON (Homo sapiens, UniProt Q04912); assay: Test B: HTRF RON test in 96-well format; type: biochemical
Method: B) HTRF RON Test in 96-Well Format
The inhibitory potency (IC50) of molecules on the enzymatic activity of kinase phosphorylation RON is determined by the HTRF technique. The activity of the kinase is evaluated by measuring the phosphorylation of the substrate polyGAT by the enzyme, in the presence of ATP.
Final RON 5 nM is incubated in the presence of the molecule to be tested (for a final concentration range from 0.17 nM to 10 μM, final DMSO 3%) in buffer MOPS 10 mM pH 7, DTT 1 mM, Tween 20 0.01%. This pre-incubation is performed in 96 half-well black plates in a volume of 35 μl for 30 minutes at room temperature.
The reaction is initiated by adding 15 μl of a mixture of substrates constituted of biotinylated poly-(GAT) 1 μg/ml final and ATP 10 μM final in the presence of MgCl2 5 mM final for a final volume of 50 μl.
After incubation for 30 min at room temperature, the reaction is stopped with 30 μl of a mixture of Hepes 100 mM final pH 7, potassium fluoride 400 mM final, BSA 0.1% and EDTA 133 mM in the presence of 80 ng per well of antibodies Streptavidin ITS-XL665 Cis-Bio Int. and 18 ng per well of anti-phosphotyrosine PT66 labelled with europium cryptate.
After incubation for 2 hours at room temperature, reading is carried out at 2 wavelengths 620 nm and 665 nm in a Genios TECAN reader for the TRACE/HTRF technique and the percentage inhibition is calculated according to the 665/620 ratios.

Chain of RON (Q04912 25-1400): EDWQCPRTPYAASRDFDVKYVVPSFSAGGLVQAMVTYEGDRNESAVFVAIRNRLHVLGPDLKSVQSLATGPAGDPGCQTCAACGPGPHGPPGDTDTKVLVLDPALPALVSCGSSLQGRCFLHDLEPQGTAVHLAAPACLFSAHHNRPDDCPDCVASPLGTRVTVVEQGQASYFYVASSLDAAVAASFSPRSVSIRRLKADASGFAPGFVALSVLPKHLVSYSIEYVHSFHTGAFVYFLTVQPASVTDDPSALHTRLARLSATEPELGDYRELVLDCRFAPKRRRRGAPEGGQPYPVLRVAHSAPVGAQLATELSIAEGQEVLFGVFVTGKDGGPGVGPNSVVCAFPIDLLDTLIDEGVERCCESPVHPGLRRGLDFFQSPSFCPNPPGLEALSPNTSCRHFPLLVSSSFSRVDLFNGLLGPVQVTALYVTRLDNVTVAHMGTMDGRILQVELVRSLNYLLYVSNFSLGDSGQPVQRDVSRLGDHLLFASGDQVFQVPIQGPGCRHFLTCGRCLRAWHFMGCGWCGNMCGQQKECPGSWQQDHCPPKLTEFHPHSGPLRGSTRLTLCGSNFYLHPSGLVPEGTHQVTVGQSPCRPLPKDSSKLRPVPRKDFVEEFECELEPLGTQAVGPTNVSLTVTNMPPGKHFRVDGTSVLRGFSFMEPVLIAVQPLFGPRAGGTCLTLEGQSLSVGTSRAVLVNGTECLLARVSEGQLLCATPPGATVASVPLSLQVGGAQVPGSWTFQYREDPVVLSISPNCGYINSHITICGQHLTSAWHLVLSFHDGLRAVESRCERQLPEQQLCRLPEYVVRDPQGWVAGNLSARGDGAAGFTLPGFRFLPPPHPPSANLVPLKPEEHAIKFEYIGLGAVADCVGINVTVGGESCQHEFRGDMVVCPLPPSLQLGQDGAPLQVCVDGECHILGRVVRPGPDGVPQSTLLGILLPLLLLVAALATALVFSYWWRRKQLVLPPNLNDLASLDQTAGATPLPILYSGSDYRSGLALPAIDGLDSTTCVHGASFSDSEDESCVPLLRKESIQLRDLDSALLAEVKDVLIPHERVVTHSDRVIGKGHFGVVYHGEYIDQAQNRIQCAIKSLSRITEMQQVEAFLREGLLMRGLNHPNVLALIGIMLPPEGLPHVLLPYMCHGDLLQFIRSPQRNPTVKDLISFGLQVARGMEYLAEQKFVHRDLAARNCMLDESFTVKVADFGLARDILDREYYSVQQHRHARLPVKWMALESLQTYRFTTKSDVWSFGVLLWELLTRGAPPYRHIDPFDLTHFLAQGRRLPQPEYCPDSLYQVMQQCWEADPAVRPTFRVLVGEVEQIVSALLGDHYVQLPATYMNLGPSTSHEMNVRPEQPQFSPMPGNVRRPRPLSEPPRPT
T1 sequence (P08581 956-1390): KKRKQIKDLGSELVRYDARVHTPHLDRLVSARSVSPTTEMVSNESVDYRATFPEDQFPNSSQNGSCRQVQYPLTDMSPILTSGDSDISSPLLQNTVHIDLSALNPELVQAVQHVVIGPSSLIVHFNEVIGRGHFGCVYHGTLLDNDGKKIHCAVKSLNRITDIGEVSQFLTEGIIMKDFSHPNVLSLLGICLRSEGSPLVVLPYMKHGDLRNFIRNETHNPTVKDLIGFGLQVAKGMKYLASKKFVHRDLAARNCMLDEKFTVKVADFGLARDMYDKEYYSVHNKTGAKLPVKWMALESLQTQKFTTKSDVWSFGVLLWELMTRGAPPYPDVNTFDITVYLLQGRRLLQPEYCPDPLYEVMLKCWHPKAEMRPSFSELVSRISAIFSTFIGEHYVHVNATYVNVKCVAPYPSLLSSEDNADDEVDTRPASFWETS

| IC50 [1] [nM] | IC50 [2] [nM] | Structure (SMILES) |
| --- | --- | --- |
| < 100 | < 500 | CC(Oc1ccc2nc(NC(=O)NCCN3CCOCC3)sc2c1)c1c(Cl)ccc(F)c1Cl (single isomer, unassigned) [Example 25, 1-{6-[(1R*)-(2,6-dichloro-3-fluorophenyl)ethoxy]-1,3-benzothiazol-2-yl}-3-(2-morpholin-4-ylethyl)urea] |
| < 100 | < 500 | C[C@@H](Oc1cc2sc(NC(=O)NCCN3CCOCC3)nc2cc1F)c1c(Cl)ccc(F)c1Cl (single isomer, unassigned) [Example 32, 1-{6-[(1R)-(2,6-dichloro-3-fluorophenyl)ethoxy]-5-fluoro-1,3-benzothiazol-2-yl}-3-(2-morpholin-4-ylethyl)urea or 1-{6-[(1S)-(2,6-dichloro-3-fluorophenyl)ethoxy]-5-fluoro-1,3-benzothiazol-2-yl}-3-(2-morpholin-4-ylethyl)urea] |
| < 100 | < 500 | C[C@@H](Oc1cc2sc(NC(=O)NCCN3CCOCC3)nc2cc1F)c1c(Cl)ccc(F)c1Cl (single isomer, unassigned) [Example 33, 1-{6-[(1R)-(2,6-dichloro-3-fluorophenyl)ethoxy]-5-fluoro-1,3-benzothiazol-2-yl}-3-(2-morpholin-4-ylethyl)urea or 1-{6-[(1S)-(2,6-dichloro-3-fluorophenyl)ethoxy]-5-fluoro-1,3-benzothiazol-2-yl}-3-(2-morpholin-4-ylethyl)urea] |
| < 100 | < 500 | CC(Oc1cc2sc(NC(=O)NCCO)nc2cc1F)c1c(Cl)ccc(F)c1Cl (single isomer, unassigned) [Example 99, 1-{6-[(1R*)-1-(2,6-dichloro-3-fluorophenyl)ethoxy]-5-fluoro-1,3-benzothiazol-2-yl}-3-(2-hydroxyethyl)urea] |
| < 100 | < 500 | CCN1CCN(CCNC(=O)Nc2nc3cc(F)c(OC(C)c4c(Cl)ccc(F)c4Cl)cc3s2)CC1 (single isomer, unassigned) [Example 101, 1-{6-[(1R*)-1-(2,6-dichloro-3-fluorophenyl)ethoxy]-5-fluoro-1,3-benzothiazol-2-yl}-3-[2-(4-ethylpiperazin-1-yl)ethyl]urea] |
| < 100 | 500 to 10000 | CCN1CCN(CCNC(=O)Nc2nc3cc(F)c(OC(C)c4c(Cl)ccc(F)c4Cl)cc3s2)CC1 (single isomer, unassigned) [Example 102, 1-{6-[(1S*)-1-(2,6-dichloro-3-fluorophenyl)ethoxy]-5-fluoro-1,3-benzothiazol-2-yl}-3-[2-(4-ethylpiperazin-1-yl)ethyl]urea] |
| < 100 | < 500 | CC(Oc1ccc2nc(NC(=O)NCCN3CCN(C)CC3)sc2c1)c1c(F)ccc(Cl)c1Cl (single isomer, unassigned) [Example 109, 1-{6-[(1R*)-1-(2,3-dichloro-6-fluorophenyl)ethoxy]-1,3-benzothiazol-2-yl}-3-[2-(4-methylpiperazin-1-yl)ethyl]urea] |
| < 100 | < 500 | CC(Oc1cc2sc(NC(=O)NCCN3CCOCC3)nc2cc1F)c1c(F)ccc(Cl)c1Cl (single isomer, unassigned) [Example 112, 1-{6-[(1R*)-1-(2,3-dichloro-6-fluorophenyl)ethoxy]-5-fluoro-1,3-benzothiazol-2-yl}-3-[2-(morpholin-4-yl)ethyl]urea] |
| < 100 | 500 to 10000 | CC(Oc1cc2sc(NC(=O)NCCN3CCOCC3)nc2cc1F)c1c(F)ccc(Cl)c1Cl (single isomer, unassigned) [Example 113, 1-{6-[(1S*)-1-(2,3-dichloro-6-fluorophenyl)ethoxy]-5-fluoro-1,3-benzothiazol-2-yl}-3-[2-(morpholin-4-yl)ethyl]urea] |
| < 100 | < 500 | CC(Oc1cc2sc(NC(=O)NCCN3CCN(C)CC3)nc2cc1F)c1c(F)ccc(Cl)c1Cl (single isomer, unassigned) [Example 116, 1-{6-[(1R*)-1-(2,3-dichloro-6-fluorophenyl)ethoxy]-5-fluoro-1,3-benzothiazol-2-yl}-3-[2-(4-methylpiperazin-1-yl)ethyl]urea] |
| < 100 | 500 to 10000 | CC(Oc1cc2sc(NC(=O)NCCN3CCN(C)CC3)nc2cc1F)c1c(F)ccc(Cl)c1Cl (single isomer, unassigned) [Example 117, 1-{6-[(1S*)-1-(2,3-dichloro-6-fluorophenyl)ethoxy]-5-fluoro-1,3-benzothiazol-2-yl}-3-[2-(4-methylpiperazin-1-yl)ethyl]urea] |
| < 100 | 500 to 10000 | CC(Oc1cc2sc(NC(=O)NCCN3CCCC3)nc2cc1F)c1c(F)ccc(Cl)c1Cl (single isomer, unassigned) [Example 119, 1-{6-[(1R*)-1-(2,3-dichloro-6-fluorophenyl)ethoxy]-5-fluoro-1,3-benzothiazol-2-yl}-3-[2-(pyrrolidin-1-yl)ethyl]urea] |
| < 100 | < 500 | CC(Oc1ccc2nc(NC(=O)NCCN3CCCC3)sc2c1)c1c(F)ccc(Cl)c1Cl (single isomer, unassigned) [Example 121, 1-{6-[(1R*)-(2,3-dichloro-6-fluorophenyl)ethoxy]-1,3-benzothiazol-2-yl}-3-[2-(pyrrolidin-1-yl)ethyl]urea] |
| < 100 | 500 to 10000 | CC(Oc1ccc2nc(NC(=O)NCCN3CCOCC3)[nH]c2c1)c1c(Cl)cccc1Cl (stereo not shown) [Example 2, 1-{6-[1-(2,6-dichlorophenyl)ethoxy]-1H-benzimidazol-2-yl}-3-(2-morpholin-4-ylethyl)urea] |
| < 100 | 500 to 10000 | CC(Oc1ccc2nc(NC(=O)NCCN3CCOCC3)[nH]c2c1)c1cc(F)ccc1Cl (stereo not shown) [Example 3, 1-{6-[1-(2-chloro-5-fluorophenyl)ethoxy]-1H-benzimidazol-2-yl}-3-(2-morpholin-4-ylethyl)urea] |
| < 100 | < 500 | CC(Oc1ccc2nc(NC(=O)NCCN3CCOCC3)[nH]c2c1)c1c(Cl)ccc(F)c1Cl (stereo not shown) [Example 4, 4-{2-[({6-[1-(2,6-Dichloro-3-fluorophenyl)ethoxy]-1H-benzimidazol-2-yl}carbamoyl)amino]ethyl}morpholin-4-ium trifluoroacetate] |
| < 100 | < 500 | CC(Oc1cc2[nH]c(NC(=O)NCCN3CCOCC3)nc2cc1F)c1c(Cl)cccc1Cl (stereo not shown) [Example 5, 1-{6-[1-(2,6-dichlorophenyl)ethoxy]-5-fluoro-1H-benzimidazol-2-yl}-3-(2-morpholin-4-ylethyl)urea] |
| < 100 | 500 to 10000 | O=C(NCCN1CCOCC1)Nc1nc2ccc(OCc3c(Cl)cccc3Cl)cc2s1 [Example 10, 1-{6-[(2,6-dichlorobenzyl)oxy]-1,3-benzothiazol-2-yl}-3-(2-morpholin-4-ylethyl)urea] |
| < 100 | < 500 | CC(Oc1ccc2nc(NC(=O)NCCN3CCOCC3)sc2c1)c1c(Cl)cccc1Cl (stereo not shown) [Example 17, 1-{6-[1-(2,6-dichlorophenyl)ethoxy]-1,3-benzothiazol-2-yl}-3-(2-morpholin-4-ylethyl)urea] |
| < 100 | 500 to 10000 | CC(Oc1ccc2nc(NC(=O)NCCN3CCOCC3)sc2c1)c1c(F)cccc1F (stereo not shown) [Example 18, 1-{6-[1-(2,6-difluorophenyl)ethoxy]-1,3-benzothiazol-2-yl}-3-(2-morpholin-4-ylethyl)urea] |
